The values below come from US10906951B2, “Modified natural killer cells and natural killer cell lines having increased cytotoxicity” (ONK THERAPEUTICS LIMITED, priority 2015, dated 2021).

Read-outs that look alike come from different tables or passages of the source.

One data set has as its system DR5. Conditions: low dose, 24 hours, FIG. 18. As to the method: Bortezomib was bought from Millennium Pharmaceuticals. Mouse anti-human DR5-AF647 (catalog number: 565498) was bought from BD Pharmingen. The stained cell samples were analyzed on BD FACS Canto II. (1) MM cell lines RPM18226 and MM1.S were grown in RPM11640 medium (Sigma, St Louis, Mo., USA) supplemented with 2 mM L-glutamine, 10 mM HEPES, 24 mM sodium bicarbonate, 0.01% of antibiotics and 10% fetal bovine serum (Sigma, St Louis, Mo., USA), in 5% CO2 atmosphere at 37° C. (2) MM cells were seeded in 6-well plates at 1×10^6/mL, 2 mL/well. (3) MM cells were then treated with different doses of Bortezomib for 24 hours. (4) DR5 expression in Bortezomib treated/untreated MM cells was then analyzed by flow cytometry (FIG. 18).

For the next data set, the system named is MM cells. How it is done:
(1) MM cell lines RPM18226 and MM1.S were grown in RPM11640 medium (Sigma, St Louis, Mo., USA) supplemented with 2 mM L-glutamine, 10 mM HEPES, 24 mM sodium bicarbonate, 0.01% of antibiotics and 10% fetal bovine serum (Sigma, St Louis, Mo., USA), in 5% CO2 atmosphere at 37° C.
(2) MM cells were seeded in 6-well plates at 1×10^6/mL, 2 mL/well.
(3) MM cells were then treated with different doses of Bortezomib for 24 hours.

The next data set concerns MM1.S cells. Briefly: Bortezomib-induced sensitization of MM1.S cells to KHYG-1 cells expressing TRAIL variant. Type of data set: cell-based. Conditions: MM1.S pretreated with 2.5 nM for 24 hours, 1:1 co-culture 12 hours, FIG. 19. As to the method:
KHYG-1 cells were transfected with the TRAIL variant (TRAIL D269H/E195R), as described above in Example 6.
(1) Bortezomib treated/untreated MM1.S cells were used as target cells. MM1.S cells were treated with 2.5 nM of Bortzeomib or vehicle (control) for 24 hours.
(2) 6 hours after electroporation of TRAIL variant mRNA, KHYG-1 cells were then cultured with MM cells in 12-well plate. After washing, cell concentrations were adjusted to 1×10^6/mL, before mixing KHYG-1 and MM1.S cells at 1:1 ratio to culture for 12 hours.
(3) Flow cytometric analysis of the cytotoxicity of KHYG-1 cells was carried out. The co-cultured cells were collected, washed and then stained with CD2-APC antibody (5 uL/test), AnnexinV-FITC (5 uL/test) and SYTOX-Green (5 uL/test) using AnnexinV binding buffer.
(4) Data were further analyzed using FlowJo 7.6.2 software. CD2-negative population represents MM1.S cells. KHYG-1 cells are strongly positive for CD2. Finally, the AnnexinV-FITC and SYTOX-Green positive cells in the CD2-negative population were analyzed.
Flow cytometric analysis of apoptosis was performed in Bortezomib-pretreated/untreated MM1.S cells co-cultured with KHYG-1 cells electroporated with/without TRAIL variant (FIG. 19).

The next data set concerns perforin. Briefly: CMA-induced reduction of perforin expression in KHYG-1 cells, flow cytometry. Type of data set: cell-based, human. To be noted: 100 nM for 2 hours, FIG. 20. As to the method:
Mouse anti-human perforin-AF647 (catalog number: 563576) was bought from BD pharmingen. Concanamycin A (catalog number: SC-202111) was bought from Santa Cruz Biotechnology. The stained cell samples were analyzed using a BD FACS Canto II.
(1) KHYG-1 cells were cultured in RPM11640 medium containing 10% FBS (fetal bovine serum), 2 mM L-glutamine, penicillin (100 U/mL)/streptomycin ([…]), and IL-2 (10 ng/mL).
(§1) (2) KHYG-1 cells (6 hours after electroporation, cultured in penicillin/streptomycin free RPMI1640 medium) were further treated with 100 nM CMA or equal volume of vehicle (DMSO) for 2 hours.
(3) The cells were collected (1×10^6 cells/test) by centrifugation (1500 rpm×5 minutes) and the supernatant was aspirated.
(4) The cells were fixed in 4% paraformaldehyde in PBS solution at room temperature for 15 minutes.
(5) The cells were washed with 4 mL of FACS Buffer (PBS, 0.5-1% BSA, 0.1% sodium azide) twice.
(6) The cells were permeabilized with 1 mL of PBS/0.1% saponin buffer for 30 minutes at room temperature.
(7) The cells were washed with 4 mL of PBS/0.1% saponin buffer.
(8) The cells were re-suspended in 100 uL of PBS/0.1% saponin buffer, before adding 5 uL of the antibody to each tube and incubating for 30 minutes on ice. […]
(11) The cells were analyzed on the flow cytometer (BD FACS Canto II). […]
A general note: Flow cytometry measures light scatter and fluorescence of single cells or particles in a stream.

A further data set has as its system KHYG-1 cells. Briefly: KHYG-1 cell viability after CMA treatment. Type of data set: cell-based. To be noted: 100 nM CMA or vehicle, FIG. 21. How it is done: as §1
In the next data set the target is DR4 (Homo sapiens, UniProt O00220). Conditions: surface plasmon resonance; WO 2009/077857; cited from earlier work. A general note: In SPR one partner is held on a chip, and binding of the other changes the refractive index at the surface.
In the next data set the target is T1, decoy receptor DcR1 (Homo sapiens, UniProt O14798).
T1 sequence (O14798 26-236): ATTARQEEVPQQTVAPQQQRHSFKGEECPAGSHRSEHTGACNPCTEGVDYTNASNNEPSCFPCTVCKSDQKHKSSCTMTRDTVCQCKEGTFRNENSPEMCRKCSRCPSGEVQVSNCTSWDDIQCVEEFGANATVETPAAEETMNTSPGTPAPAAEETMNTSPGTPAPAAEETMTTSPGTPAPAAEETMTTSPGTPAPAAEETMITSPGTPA
To be noted: surface plasmon resonance; WO 2009/077857; cited from earlier work.

Another data set relates to CTLA4 gene. Briefly: gRNA cleavage activity, T7E1 mismatch detection assay in K562 cells, CTLA4. Conditions: CRISPR/Cas9, T7E1 mismatch assay, FIG. 5. Type of data set: cell-based, human. The text has this:
Two gRNA candidates were selected for each target gene and their cleavage efficacies in K562 cells determined. The sequences of the gRNA candidates are shown in Table 1 and the Protospacer Adjacent Motif (PAM) relates to the last 3 bases of the sequence. The flanking regions of the gRNA sequences on the LIR2 gene (SEQ ID NO: 1) and the CTLA4 gene (SEQ ID NO: 7) are shown in FIGS. 1 and 2, respectively.
K562 cells were transfected with the prepared gRNA constructs (FIG. 3) and subsequently harvested for PCR amplification. The presence of GFP expression was used to report successful incorporation of the gRNA construct into the K562 cells. This confirmed expression of the Cas9 gene and therefore the ability to knock out expression of the LIR2 and CTLA4 genes.
The cleavage activity of the gRNA constructs was determined using an in vitro mismatch detection assay. T7E1 endonuclease I recognises and cleaves non-perfectly matched DNA, allowing the parental LIR2 and CTLA4 genes to be compared to the mutated genes following CRISPR/Cas9 transfection and non-homologous end joining (NHEJ).

Turning to `CC(C)C[C@H](NC(=O)[C@H](Cc1ccccc1)NC(=O)c1cnccn1)B(O)O` [Bortezomib], the DR5 expression result in the data set on DR5 (MM1.S cells) and in the data set on DR5 (RPMI8226 cells) was “increase DR5 expression” each time. The “toxicity at high doses” value with MM cells (high doses) is “high toxicity resulting in most of the MM cells dying”. The “induction of apoptosis associated with DR5 upregulation” value in the data set with MM cells (low dose, data not shown) is “minor induction of apoptosis”. The “sensitivity of MM cells to KHYG-1 cells expressing the TRAIL variant” value in the data set on MM1.S cells is on record as “induced sensitivity of MM cells”.

Turning to `C/C=C/[C@H]1O[C@@](O)([C@@H](C)[C@H](O)[C@H](C)[C@H]2OC(=O)/C(OC)=C/C(C)=C/[C@@H](C)[C@@H](O)[C@@H](CC)[C@@H](O)[C@H](C)C/C(C)=C/C=C/[C@@H]2OC)C[C@@H](O[C@H]2C[C@@H](O)[C@H](OC(N)=O)[C@@H](C)O2)[C@@H]1C` [CMA, Concanamycin A], the perforin expression level result with perforin is on record as “significantly decreased”. For the same molecule, in the data set on KHYG-1 cells, the “viability of KHYG-1 cells” value was “no negative effects”.

By Kd is commonly meant a measure of binding affinity in units of concentration. Turning to “Wildtype TRAIL: wildtype TRAIL ligand; DNA sequence SEQ ID NO: 13”, the values for the Kd with DR4 and with decoy receptor DcR1 were more than 2 nM and more than 20 nM, respectively.

On to “g7 gRNA: CTLA4 g7 gRNA sequence CACTCACCTTTGCAGAAGACAGG (expressed or natural sequence; listed as Homo sapiens)”, for which the “gRNA cleavage efficiency (CTLA4 knockout)” value in the data set with CTLA4 gene is reported as 32%.

Take “g15 gRNA: CTLA4 g15 gRNA sequence CCTTGTGCCGCTGAAATCCAAGG (expressed or natural sequence; listed as Homo sapiens)”: in the data set with CTLA4 gene, the “gRNA cleavage efficiency (CTLA4 knockout)” value was determined as 26%.
